Test results: patent US10806794B2, “Protease inhibitors having enhanced features” (priority 2008, dated 2020)
Several values for one entry are separate records, joined by “and”; a condition that tells them apart may be missing. Equal values may be shown once.

Key:
CEM-SS cells = experiment: CEM-SS macromolecule synthesis (tritiated precursor incorporation); format: cell-based; conditions: for Thymidine incorportation (CEM-SS) TC50: DNA synthesis; for Uridine incorporation (CEM-SS) TC50: RNA synthesis; for Leucine Incorporation (CEM-SS) TC50: protein synthesis
Procedure: Cellular macromolecule synthesis was evaluated using tritiated precursor incorporation assays. CEM-SS cells (2.5×10^3 cells/well) were cultured in the presence or absence of test compound for 7 days at 37 C, 5% CO2 in a 96-well microtiter plate. On day 6 of the incubation, 1 uCi of [methyl-3H]-thymidine for DNA synthesis, [5-3H]-uridine for RNA synthesis, or [3,4,5-3H]-leucine for protein synthesis was added to compound-treated cells, and the plate was further incubated for 16 hours. The cells were transferred to a glass fiber filtermat using an Inotech cell harvester. The filtermats were washed with distilled water then sealed in a bag with scintillation fluid. Incorporated radioactivity was measured using a Wallac scintillation counter.

[1] = Metabolic stability in beagle dog hepatocytes; format: in vitro ADME
[2] = Metabolic stability in rat liver microsomes; format: in vitro ADME
Text: Metabolic stability of test compounds was studied in rat liver microsomes.

in vitro = conditions: human
Procedure: Absorption properties of various compounds were measured using bi-directional permeability assays in Caco-2 cells. […] The efflux ratio is calculated as the ratio of the Papp(B→A)/Papp(A→B).

[3] = Plasma protein binding by equilibrium dialysis, monkey plasma; format: in vitro ADME; conditions: read-out: Monkey Plasma Protein Binding Fu ± SD
Procedure: In assays to estimate binding of test compounds to plasma proteins, test compound solutions (5 μM) are prepared in buffer and species-specific plasma (final DMSO concentration 0.5%). The plasma-containing solution is added to one side of the membrane of an equilibrium dialysis system, and the plasma-free is added to the other side. Dialysis was allowed to reach equilibrium by incubation for two hours at 37° C. The concentration of compound on both sides of the membrane was measured using LC-MS/MS.

hERG = hERG (Homo sapiens (Human), UniProt Q12809); experiment: hERG current (IKr) in HEK-293 cells, whole-cell patch clamp; format: cell-based; conditions: 0.1 Hz
Procedure: Currents were measured using the whole-cell variant of the patch clamp method. Glass pipettes were produced with tip openings of […] for K current recordings. Pipette tip resistance was approximately 1.0 to 2.0 MΩ when filled with K internal solutions (130 mM KCl, 5 mM MgCl2, 10 mM HEPES, 5 mM EGTA, 5 mM ATP-Na2, pH7.2). An Axopatch 1-B amplifier (Axon Instruments, Foster City, Calif.) was used for whole-cell voltage clamping. Voltage clamp pulses were controlled by pClamp software (ver 9.2, Axon Instruments).
After rupture of the cell membrane, current kinetics and amplitudes were allowed to stabilize as the cell was dialyzed with internal solution and paced at 0.1 Hz (−75 mV; 500 msec, +10 mV; 500 msec, −40 mV; typically 2-4 minutes). Currents were considered stable if the currents elicited by a series of voltage pulses given at 0.1 Hz were superimposed. Peak hERG current was measured as the maximum outward deflection of the tail current elicited upon return to −40 mV.
Data are presented in Table 19 as the percent reduction of current amplitude. This was measured as current reduction after a steady-state effect had been reached in the presence of drug relative to current amplitude before drug was introduced (control). Each cell served as its own control.

[4] = target: recombinant HIV-1 protease (Human immunodeficiency virus type 1 group M subtype B (isolate HXB2) (HIV-1), UniProt P04585); experiment: Enzyme inhibition of purified HIV-1 protease (SensoLyte 520 HIV-Protease Assay Kit); format: biochemical; conditions: IC50 ± SD
Procedure: Protease inhibitors (PI) are used to treat HIV infection by preventing viral assembly and maturation through the inhibition of HIV-1 protease activity. Biochemical assays were performed to evaluate the potential of PEG-PI conjugates to inhibit HIV-1 protease activity, relative to their respective PI parent molecules. Activity assays were performed at using the SensoLyte 520 HIV-Protease Assay Kit (Anaspec Inc., San Jose, Calif.) and recombinant HIV-1 protease. Protease activity was monitored by the formation of a fluorescent reporter product generated during HIV-1 protease-mediated digestion of a quenched, fluorimetric substrate containing the p17/p24 Pr^gag cleavage site.

PBMCs = experiment: Toxicity in PBMCs cultured without virus (XTT); conditions: seven days, absence of virus, XTT
Procedure: Fresh human peripheral blood mononuclear cells (PBMCs) obtained from a commercial source were purified following centrifugation using a Ficoll-Hypaque density gradient. Viable cells were induced to proliferate in the presence of PHA-P and recombinant human IL-2 for 72 hours. […] Cell supernatant containing HIV-1 viral was incubated for 90 minutes at 37° C. with a reaction mixture containing EGTA, Triton X-100, Tris (pH 7.4), DTT, MgCl2, poly rA, oligo dT, and tritiated thymidine triphosphate (TTP). Incorporation of TTP into DNA was monitored by spotting the reaction mixture onto a DEAE filter mat, followed by washes with 5% phosphate buffer, distilled water, and 70% ethanol, and subsequent drying of the mat. […] TI was calculated as TC50/EC50.

[5] = tested on: Sprague-Dawley rat hepatocytes; experiment: Metabolic stability in Sprague-Dawley rat hepatocytes; format: in vitro ADME; conditions: 0.1 uM
[6] = tested on: human liver microsomal proteins; experiment: Microsomal protein binding by equilibrium dialysis; format: in vitro ADME; conditions: human liver microsomes, 3 μM, fraction unbound
Summary of the method: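 Compound at 3 μM final in buffer with or without human liver microsomes, dialysed to equilibrium at 37 °C. Both sides quantified by LC-MS/MS to derive fraction unbound (Fu).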

hERG, sequence (Q12809 whole entry): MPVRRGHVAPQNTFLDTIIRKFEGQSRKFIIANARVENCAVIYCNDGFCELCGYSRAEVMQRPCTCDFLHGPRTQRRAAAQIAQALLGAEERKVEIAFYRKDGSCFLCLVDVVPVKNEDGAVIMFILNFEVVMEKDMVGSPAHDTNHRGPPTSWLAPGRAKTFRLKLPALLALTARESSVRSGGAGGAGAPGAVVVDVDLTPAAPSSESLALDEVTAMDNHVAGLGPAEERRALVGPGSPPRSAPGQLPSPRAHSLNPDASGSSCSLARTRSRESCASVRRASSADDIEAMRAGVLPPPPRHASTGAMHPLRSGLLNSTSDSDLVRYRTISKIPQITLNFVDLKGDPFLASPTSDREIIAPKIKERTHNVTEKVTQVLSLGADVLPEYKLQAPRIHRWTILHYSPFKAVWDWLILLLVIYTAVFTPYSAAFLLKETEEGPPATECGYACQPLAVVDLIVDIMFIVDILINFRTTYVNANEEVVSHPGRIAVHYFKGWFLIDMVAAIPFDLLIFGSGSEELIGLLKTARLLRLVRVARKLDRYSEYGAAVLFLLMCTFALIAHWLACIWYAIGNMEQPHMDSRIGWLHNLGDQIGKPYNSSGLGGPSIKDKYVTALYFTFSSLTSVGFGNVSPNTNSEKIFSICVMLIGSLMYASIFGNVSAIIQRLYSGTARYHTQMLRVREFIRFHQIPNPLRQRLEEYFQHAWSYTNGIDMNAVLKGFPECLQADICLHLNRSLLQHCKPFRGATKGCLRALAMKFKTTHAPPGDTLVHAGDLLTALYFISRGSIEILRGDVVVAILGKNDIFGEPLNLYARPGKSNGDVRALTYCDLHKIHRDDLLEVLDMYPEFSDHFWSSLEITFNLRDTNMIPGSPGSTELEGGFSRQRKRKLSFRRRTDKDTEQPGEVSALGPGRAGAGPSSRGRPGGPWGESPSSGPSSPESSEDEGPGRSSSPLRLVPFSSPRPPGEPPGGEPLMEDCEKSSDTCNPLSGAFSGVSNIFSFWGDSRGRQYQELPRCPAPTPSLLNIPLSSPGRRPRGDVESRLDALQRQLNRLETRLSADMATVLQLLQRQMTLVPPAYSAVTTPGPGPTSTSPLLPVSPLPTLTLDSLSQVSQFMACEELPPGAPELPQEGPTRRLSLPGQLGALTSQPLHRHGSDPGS

| SMILES | Thymidine incorportation (CEM-SS) TC50 (CEM-SS cells) | Uridine incorporation (CEM-SS) TC50 (CEM-SS cells) | Leucine Incorporation (CEM-SS) TC50 (CEM-SS cells) | half-life at 0.1 μM [1] | hepatocyte CLint at 0.1 μM ([1]; read-out: Clint ± SEM) | half-life [2] | Papp A→B (in vitro; Caco-2, A→B, ×10^−6) | fraction unbound at 2 h, 5 μM [3] | IC50 (hERG; hERG current in HEK-293 cells, whole-cell patch clamp, read-out: IC50 (Block of hERG at 0.1 Hz)) | inhibition at 10 µM (hERG; human, HEK-293 cells stably expressing hERG, 10 μM, HEK-293 cells, read-out: Mean % inhibition ± SEM (Block of hERG at 0.1 Hz)) | inhibition at 30 µM (hERG; human, HEK-293 cells stably expressing hERG, 30 μM, HEK-293 cells, read-out: Mean % inhibition ± SEM (Block of hERG at 0.1 Hz)) | inhibition at 100 µM (hERG; human, HEK-293 cells stably expressing hERG, 100 μM, HEK-293 cells, read-out: Mean % inhibition ± SEM (Block of hERG at 0.1 Hz)) | IC50 [4] | Papp A→B (in vitro; Caco-2) | PBMC TC50 ± SD (PBMCs) | CLint ± SEM [5] | t1/2 [5] | Microsomal Protein Binding Fu ± SD [6] |
| --- | --- | --- | --- | --- | --- | --- | --- | --- | --- | --- | --- | --- | --- | --- | --- | --- | --- | --- |
| COC(=O)N[C@H](C(=O)N[C@@H](Cc1ccccc1)[C@@H](O)CN(Cc1ccc(-c2ccccn2)cc1)NC(=O)[C@@H](NC(=O)OC)C(C)(C)C)C(C)(C)C [Atazanavir, reference compound] | 288.3 µM | 281.4 µM | 259.6 µM | 758 min | 1.83 ± 0.000561 µL/min/1e6 cells | 24.2 min | 2.05 ×10⁻⁶ cm/s | 0.201 ± 0.0183 | 63.9 µM | 15.6 ± 1.9% | 32.5 ± 3.7% | 60.5 ± 2.5% | 0.00155 µM and 0.00692 µM and 0.00512 µM and 0.0076 µM and 0.00737 µM | – | – | – | – | – |
| CC(C)CN(C[C@@H](O)[C@H](Cc1ccccc1)NC(=O)O[C@H]1CO[C@H]2OCC[C@H]21)S(=O)(=O)c1ccc(N)cc1 [Darunavir, reference compound] | 223.2 µM | >400 µM | 285.8 µM | – | – | – | – | – | – | – | – | – | – | 2.55 ×10⁻⁶ cm/s | – | – | – | – |
| COCCOCCOCCOc1ccc(C[C@H](NC(=O)O[C@H]2CO[C@H]3OCC[C@H]32)C(O)CN(CC(C)C)S(=O)(=O)c2ccc(N)cc2)cc1 (some centres unmarked) [mPEG3-O-Darunavir] | 262.9 µM | >400 µM | >400 µM | – | – | – | – | – | – | – | – | – | – | – | >200 µM | 28.4 ± 0.00359 μL/min/10^6 cells | 48.8 min | 0.936 ± 0.0109 |
| COCCOCCOCCOCCOCCNc1ccc(S(=O)(=O)N(CC(C)C)CC(O)[C@H](Cc2ccccc2)NC(=O)O[C@H]2CO[C@H]3OCC[C@H]32)cc1 (some centres unmarked) [mPEG5-N-Darunavir] | – | – | – | – | – | – | – | – | – | – | – | – | – | – | – | – | – | 0.864 ± 0.011 |
| COCCOCCOCCOCCOCCOc1ccc(C[C@H](NC(=O)O[C@H]2CO[C@H]3OCC[C@H]32)C(O)CN(CC(C)C)S(=O)(=O)c2ccc(N)cc2)cc1 (some centres unmarked) [mPEG5-O-Darunavir] | 165.7 µM | >400 µM | >400 µM | – | – | – | – | – | – | – | – | – | – | – | >200 µM | 37.0 ± 0.00425 μL/min/10^6 cells | 37.5 min | 0.804 ± 0.253 |
